{
  "source": "patent US9060952B2",
  "about": "“Synergistic preservative blends” (LONZA LTD., priority 2008, dated 2015)",
  "assay_in_all_cases": "Minimum inhibitory concentration (MIC), broth dilution",
  "key": {"E. coli ATCC 8739": {"test_system": "E. coli ATCC 8739", "parameters": "species or system Escherichia coli", "conditions": "for MIC: Escherichia coli", "protocol": "(§1) Minimum inhibitory concentrations (MIC) were determined for individual components and binary formulations as follows. Individual bacterial suspensions of S. aureus (gram positive), E. coli and P. aeruginosa (both gram negative) and individual fungal suspensions of C. albicans and A. niger were prepared as described in Example 1. Each individual suspension was standardized with PBDW to yield a ˜10^8 CFU/mL or ˜10^7 cells/mL for the individual bacteria and fungi, respectively.\n(§2) The individual components and binary formulations were diluted in either DI water or propylene glycol (as appropriate for solubility) to yield a 10,000 ppm total starting active solution. From the 10,000 ppm solution, a 1:9 dilution was made in sterile Nutrient Broth to yield a 1,000 ppm active solution. Five mL of the 1,000 ppm dilution was transferred to five mL of sterile Nutrient Broth (NB) to yield a 500 ppm active solution. This dilution scheme was repeated down to 3.90 ppm active. The same dilutions were made in sterile Sabouraud Dextrose Broth (SDB) for the fungal MIC testing. The series of nine active solutions (3.9 ppm˜1000 ppm) was prepared for each of the five microorganisms to be tested.\n(§3) From the E. coli suspension, 0.1 mL was added to each of the nine, 5-mL active solutions in NB. Each tube was mixed thoroughly. This was repeated for each of the bacterial suspensions. Similarly, 0.1 mL of the C. albicans suspension was added to each of the nine, 5-mL active solutions in SDB. This was repeated with A. niger in a separate set of dilutions. Each tube was mixed thoroughly. Controls were prepared for each organism by inoculating 5 mL of NB or SDB, as appropriate. All three sets of bacterial tubes were incubated at 35° C. for 48 hours and the two sets of fungal tubes were incubated at 30° C. for 72 and 120 hours. At the end of the incubation period, the tubes were mixed and visually inspected for turbidity compared to the control. The lowest concentration with a lack of turbidity was recorded as the Minimum Inhibitory Concentration (MIC).\n(§4) The synergism value is (QA/Qa+QB/Qb). QA is the concentration of component A in the mixture, Qa is the concentration of component A applied singly, QB is the concentration of component B in the mixture, Qb is the concentration of component B applied singly. When the synergism value is less than one, the mixture is synergistic. Values for (QA/Qa+QB/Qb) of 1 and greater than 1 represent an additive effect and an antagonistic effect, respectively."}, "P. aeruginosa ATCC 9027": {"test_system": "P. aeruginosa ATCC 9027", "parameters": "species or system Pseudomonas aeruginosa", "conditions": "for MIC: Pseudomonas aeruginosa", "protocol": "as §1, §2, §3, §4"}, "S. aureus ATCC 6538": {"test_system": "S. aureus ATCC 6538", "parameters": "species or system Staphylococcus aureus", "conditions": "for MIC: Staphylococcus aureus", "protocol": "as §1, §2, §3, §4"}, "C. albicans ATCC 10231": {"test_system": "C. albicans ATCC 10231", "parameters": "species or system Candida albicans", "protocol": "as §1, §2\n(§5) From the E. coli suspension, 0.1 mL was added to each of the nine, 5-mL active solutions in NB. […] The lowest concentration with a lack of turbidity was recorded as the Minimum Inhibitory Concentration (MIC). […]"}, "A. niger ATCC 16404": {"test_system": "A. niger ATCC 16404", "parameters": "species or system Aspergillus niger", "protocol": "as §1, §2, §5"}},
  "note": "Like-named read-outs stand apart in the source and are kept apart here.",
  "data": [
    {"smiles": "CCCCCCC(O)CO", "note": "(stereo not shown) [Caprylyl Glycol]", "values": [
      {"measurement": "Qa, concentration of component A applied singly (MIC)", "setting": "E. coli ATCC 8739; E. coli", "result": 1000, "unit": "ppm"},
      {"measurement": "Qa, concentration of component A applied singly (MIC)", "setting": "P. aeruginosa ATCC 9027; P. aeruginosa", "result": ">1000", "unit": "ppm"},
      {"measurement": "Qa, concentration of component A applied singly (MIC)", "setting": "S. aureus ATCC 6538; S. aureus", "result": ">1000", "unit": "ppm"}
    ]},
    {"smiles": "CC(=O)C1C(=O)C=C(C)OC1=O", "note": "(stereo not shown) [Dehydroacetic acid]", "values": [
      {"measurement": "MIC", "setting": "E. coli ATCC 8739; ATCC8739, read-out: Qb, concentration of component B applied singly (MIC)", "result": 500, "unit": "µg/mL"},
      {"measurement": "MIC", "setting": "P. aeruginosa ATCC 9027; ATCC9027, read-out: Qb, concentration of component B applied singly (MIC)", "result": 500, "unit": "µg/mL"},
      {"measurement": "MIC", "setting": "S. aureus ATCC 6538; ATCC6538, read-out: Qb, concentration of component B applied singly (MIC)", "result": 500, "unit": "µg/mL"}
    ]},
    {"smiles": "Cn1sccc1=O", "note": "[Methylisothiazolinone]", "values": [
      {"measurement": "Qa, concentration of component A applied singly (MIC)", "setting": "E. coli ATCC 8739; E. coli", "result": 62.5, "unit": "ppm"},
      {"measurement": "Qa, concentration of component A applied singly (MIC)", "setting": "C. albicans ATCC 10231", "result": 250, "unit": "ppm"},
      {"measurement": "Qa, concentration of component A applied singly (MIC)", "setting": "P. aeruginosa ATCC 9027; P. aeruginosa", "result": 62.5, "unit": "ppm"},
      {"measurement": "Qa, concentration of component A applied singly (MIC)", "setting": "A. niger ATCC 16404", "result": 500, "unit": "ppm"},
      {"measurement": "Qa, concentration of component A applied singly (MIC)", "setting": "S. aureus ATCC 6538; S. aureus", "result": 250, "unit": "ppm"}
    ]},
    {"smiles": "Cc1cc(CC(C)CC(C)(C)C)n(O)c(=O)c1.NCCO", "note": "(stereo not shown) [Piroctone Olamine]", "values": [
      {"measurement": "Qb, concentration of component B applied singly (MIC)", "setting": "E. coli ATCC 8739; E. coli", "result": 62.5, "unit": "ppm"},
      {"measurement": "Qb, concentration of component B applied singly (MIC)", "setting": "C. albicans ATCC 10231", "result": 62.5, "unit": "ppm"},
      {"measurement": "Qb, concentration of component B applied singly (MIC)", "setting": "P. aeruginosa ATCC 9027; P. aeruginosa", "result": 62.5, "unit": "ppm"},
      {"measurement": "Qb, concentration of component B applied singly (MIC)", "setting": "A. niger ATCC 16404", "result": 62.5, "unit": "ppm"},
      {"measurement": "Qb, concentration of component B applied singly (MIC)", "setting": "S. aureus ATCC 6538; S. aureus", "result": 62.5, "unit": "ppm"}
    ]},
    {"smiles": "CCCCCCCCCCCO", "note": "[Undecanol]", "values": [
      {"measurement": "MIC", "setting": "E. coli ATCC 8739; ATCC8739, E. coli, read-out: Qa, concentration of component A applied singly (MIC)", "result": "> 1000", "unit": "µg/mL"},
      {"measurement": "MIC", "setting": "P. aeruginosa ATCC 9027; ATCC9027, P. aeruginosa, read-out: Qa, concentration of component A applied singly (MIC)", "result": "> 1000", "unit": "µg/mL"},
      {"measurement": "MIC", "setting": "S. aureus ATCC 6538; ATCC6538, S. aureus, read-out: Qa, concentration of component A applied singly (MIC)", "result": "> 1000", "unit": "µg/mL"}
    ]}
  ]
}
